Measurements from patent publication US20220370396A1, “METHODS FOR MODULATING CONDITIONS OF THE EYE USING NOVEL LATANOPROST COMPOUND OPHTHALMIC COMPOSITIONS” (Somerset Therapeutics LLC, priority 2021, published 2022).

Test: Comparative stability testing of latanoprost formulations under refrigerated, room temperature and accelerated conditions
Type: physicochemical
Experimental: Formulations prepared according to the invention as described in Example 1 were tested for stability under refrigerated conditions ((2-8° C.), […] (25° C./60% relative humidity) and accelerated conditions (40° C./75% relative humidity) to determine stability of such formulations. The stability data of the composition provided in Table 1 of Example 1 was also compared with Reference Product (XALATAN®). Stability results are provided in Table 3.
The stability data for the composition of Table 1, Example 1 (comprising the PCCC polyoxyl 40 hydrogenated castor oil), was compared to the composition of Table 2, Example 2, comprising the polysorbate-80.

Effect of surfactant on stabilization of latanoprost formulations: marginal effect on stabilization
Substance: polysorbate-80
